Reference: patent US20110076332A1, “Dextran-chitosan based in-situ gelling hydrogels for biomedical applications” (priority 2009, published 2011)

Tested on: Staphylococcus aureus (S. aureus)
Assay: Bacterial attachment and biofilm formation on hydrogels in 96-well plates, MTS assay
Assay type: cell-based
Conditions: whether or not a hydrogel was present
Protocol: Determination of bacteriostatic action against S. Aureus bacteria: Staphylococcus aureus (S. aureus) was used to study the resistance of selected dextran-chitosan hydrogels of the present invention to bacterial attachment and biofilm formation. Six different types of gels, having different chitosan-to-dextran ratios, proteins and bactericidal drugs, with six replicates each, were prepared in 96-well plates under sterile conditions. FIG. 18 is a bar chart showing the relative extent of bacterial growth, as estimated by MTS assay, for the various cases studied.
The chitosan and dextran solutions used in this study were prepared as described above. With reference to the labels used in FIG. 17, hydrogels were prepared with chitosan-dextran ratios of 1:1 (“1:1”), 2:1 (“2:1”) and 3:1 (“3:1”). Wells with chitosan sheets alone (“CS”), empty wells (“10̂8”), wells with vancomycin alone (“10̂8+VMC”) and wells with PBS alone (“PBS”) were used as controls. Additional hydrogels having chitosan-dextran ratios of 2:1 were prepared with fibronectin (“2:1+FN”), vancomycin (“2:1+VMC”) or both (“2:1+FN+VMC”) were also studied to understand the effect of drug loading and release on bacterial colony formation.
For the study, triplicate plates of each combination were seeded with S. aureus at a concentration of 1.0×10^8 bacteria/ml. The bacteria were allowed to attach and grow overnight (16 hours). […]

In the case of `CN[C@H](CC(C)C)C(=O)N[C@H]1C(=O)N[C@@H](CC(N)=O)C(=O)N[C@H]2C(=O)N[C@H]3C(=O)N[C@H](C(=O)N[C@H](C(=O)O)c4cc(O)cc(O)c4-c4cc3ccc4O)[C@H](O)c3ccc(c(Cl)c3)Oc3cc2cc(c3O[C@@H]2O[C@H](CO)[C@@H](O)[C@H](O)[C@H]2O[C@H]2C[C@](C)(N)[C@H](O)[C@H](C)O2)Oc2ccc(cc2Cl)[C@H]1O` [vancomycin], the bacterial colony formation was “reduced bacterial colony formation”.
